Laboratory results as given in paper PMC7481290, “Halogenation as a tool to tune antimicrobial activity of peptoids” (Scientific Reports, 2020).
≈ marks a conversion by molar mass, not a printed value. Non-standard residues stand in square brackets, D forms with d. Residues, ends and D or L forms follow the SMILES beside them. N(4-Br-benzyl)Gly = O=C(O)CNCc1ccc(Br)cc1; NBzl(4-I)Gly = O=C(O)CNCc1ccc(I)cc1; Nphe = O=C(O)CNCc1ccccc1; Nlys = NCCCCNCC(=O)O

Experiments:
[1] = tested on: Methicillin-resistant S. aureus USA 300; format: cell-based, Staphylococcus aureus; settings: USA 300, 18 h
How it was run: (§1)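 Broth microdilution per CLSI in MHB II, final inoculum 5 × 10^5 CFU/mL, with twofold peptoid dilutions. Incubation was 18 h at 37 °C in ambient air. MIC was taken as the lowest concentration without visible growth, from two experiments on different days in technical triplicate.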

S. aureus ATCC 25923 = format: cell-based, Staphylococcus aureus; settings: for Minimal inhibitory concentration SA^a: ATCC 25923, 18 h
How it was run: as §1

S. aureus ATCC 29213 = format: cell-based, Staphylococcus aureus; settings: ATCC 29213, 18 h
How it was run: as §1

[2] = tested on: Methicillin-resistant S. epidermidis ATCC 51625; format: cell-based, Staphylococcus epidermidis; settings: ATCC 51625, 18 h
How it was run: as §1

[3] = tested on: Methicillin-resistant S. epidermidis ET-024; format: cell-based, Staphylococcus epidermidis; settings: for Minimal inhibitory concentration MRSE^d: Methicillin-resistant ET-024, 18 h
How it was run: as §1

E. coli ATCC 25922 = format: cell-based, Escherichia coli; settings: ATCC 25922, 18 h
How it was run: as §1

[4] = tested on: P. aeruginosa PA01 (H103); format: cell-based, Pseudomonas aeruginosa; settings: H103, 18 h
How it was run: as §1

[5] = Critical aggregation concentration from SAXS fit analysis; format: physicochemical
Description: SAXS experiments of the 10-mer peptoids were performed at the automated BM29 bioSAXS beamline at the European Synchrotron Radiation Facility (ESRF) in Grenoble, France[45]. The data was obtained using an energy of 12.5 keV and a detector distance of 2.87 m, covering a q range ( q=4πsin(θ/2)/λ ), where θ is the scattering angle and λ is the X-ray wavelength) of about 0.0047 to 0.5 Å^−1. The data set was calibrated to an absolute intensity scale using water as a primary standard. 40 µL samples were run through a capillary using the flow mode of the automated sample changer. SAXS data was collected in ten successive frames of 0.5 s each to monitor radiation damage and the data reduction was done using the standard tool at BM29[47].
The SAXS experiments on the fully iodinated 6-, 8-, and 12-mers to determine the CAC of the compounds were performed using a Bruker NANOSTAR equipped with a microfocus X-ray source (IμS Cu, Incoatec, Germany) and a VÅNTEC-2000 detector. Raw scattering data was calibrated to absolute intensity scale using water as a primary standard and radially averaged in order to obtain the 1D scattered intensity profile as a function of the scattering vector, with a wavelength of 1.54 Å.
The modelling fit analysis of the scattering data is explained in detail in the supplementary information.

[6] = tested on: selected bacterial strains (S. aureus, S. epidermidis, E. coli, P. aeruginosa); format: cell-based; settings: for MICs, range across strains: range matches Gram-positive strains of Table 1
Description: All 36 peptoids were tested against seven bacterial strains: five Gram-positive (Staphylococcus aureus ATCC 25923 and ATCC 29213, methicillin-resistant Staphylococcus aureus USA 300, methicillin-resistant Staphylococcus epidermidis ET-024 and ATCC 51625) and two Gram-negative (Escherichia coli ATCC 25922, Pseudomonas aeruginosa PA01) (Table 1).
Bacterial growth inhibition was determined by using broth microdilution according to the Clinical Laboratory Standards Institute[43]. The antibacterial activity of peptoids was tested against S. aureus ATCC 25923, ATCC29213, and methicillin resistant S. aureus USA 300, methicillin resistant S. epidermidis ATCC 51625, a biofilm producing methicillin resistant S. epidermidis ET-024[44], P. aeruginosa Pa01 (H103), and E. coli ATCC 25922. Bacteria, grown on agar plates for 18 h at 37 °C, were diluted to ∼1 × 10^8 CFU/mL in Mueller‐Hinton Broth II (MHB II). Twofold serial dilutions of peptoids in MHB II were inoculated with bacteria to achieve a final concentration of 5 × 10^5 CFU/mL in polypropylene 96 U‐well microtiter plates (Corning 3,897; ThermoFisher Scientific, Roskilde), followed by incubation at 37 °C in ambient air for 18 h. The MIC values were determined as the lowest concentration showing no visible bacterial growth. Experiments were performed twice (in technical triplicates) on 2 different days.

Row | Structure (SMILES) | Minimal inhibitory concentration MRSA^c [1] | Minimal inhibitory concentration SA^a (S. aureus ATCC 25923) | Minimal inhibitory concentration SA^b (S. aureus ATCC 29213) | Minimal inhibitory concentration MRSE^e [2] | Minimal inhibitory concentration MRSE^d [3] | Minimal inhibitory concentration EC^f (E. coli ATCC 25922) | Minimal inhibitory concentration PA^g [4] | critical aggregation concentration (CAC) [5] | antimicrobial potency against the selected bacterial strains, in words [6] | fold increase of activity against S. aureus (S. aureus ATCC 25923; versus non-halogenated control of same length) | fold increase of activity against MRSE ([3]; versus non-halogenated control of same length, values match ET-024) | MICs, range across strains [6]
1 | NCCCCNCC(=O)N(CC(=O)N(CCCCN)CC(=O)N(CC(=O)N(CCCCN)CC(=O)N(CC(=O)N(CCCCN)CC(=O)N(CC(=O)N(CCCCN)CC(=O)N(CC(N)=O)Cc1ccc(I)cc1)Cc1ccc(I)cc1)Cc1ccc(I)cc1)Cc1ccc(I)cc1)Cc1ccc(I)cc1 [Compound 23] (H-[Nlys][NBzl(4-I)Gly][Nlys][NBzl(4-I)Gly][Nlys][NBzl(4-I)Gly][Nlys][NBzl(4-I)Gly][Nlys][NBzl(4-I)Gly]-NH2) | 16 µg/mL (≈ 7.91 µM) | 32 µg/mL (≈ 15.8 µM) | 32 µg/mL (≈ 15.8 µM) | 8 µg/mL (≈ 3.95 µM) | 4 µg/mL (≈ 1.98 µM) | > 512 µg/mL | > 512 µg/mL | 0.4 mg/mL | the activity was lost | – | – | –
2 | NCCCCNCC(=O)N(CC(=O)N(CCCCN)CC(=O)N(CC(=O)N(CCCCN)CC(=O)N(CC(=O)N(CCCCN)CC(=O)N(CC(N)=O)Cc1ccccc1)Cc1ccccc1)Cc1ccccc1)Cc1ccccc1 [Compound 10] (H-[Nlys][Nphe][Nlys][Nphe][Nlys][Nphe][Nlys][Nphe]-NH2) | > 512 µg/mL | > 512 µg/mL | > 512 µg/mL | 256 µg/mL (≈ 229 µM) | 256 µg/mL (≈ 229 µM) | 256 µg/mL (≈ 229 µM) | > 512 µg/mL | – | inactive | – | – | –
3 | NCCCCNCC(=O)N(CC(=O)N(CCCCN)CC(=O)N(CC(=O)N(CCCCN)CC(=O)N(CC(=O)N(CCCCN)CC(=O)N(CC(=O)N(CCCCN)CC(=O)N(CC(N)=O)Cc1ccc(Br)cc1)Cc1ccc(Br)cc1)Cc1ccc(Br)cc1)Cc1ccc(Br)cc1)Cc1ccc(Br)cc1 [Compound 22] (H-[Nlys][N(4-Br-benzyl)Gly][Nlys][N(4-Br-benzyl)Gly][Nlys][N(4-Br-benzyl)Gly][Nlys][N(4-Br-benzyl)Gly][Nlys][N(4-Br-benzyl)Gly]-NH2) | 4 µg/mL (≈ 2.24 µM) | 2 µg/mL (≈ 1.12 µM) | 2 µg/mL (≈ 1.12 µM) | 1 µg/mL (≈ 0.559 µM) | 1 µg/mL (≈ 0.559 µM) | 64 µg/mL (≈ 35.8 µM) | > 512 µg/mL | 2.3 mg/mL | – | > 256 fold | 128 fold | 1 to 4 µg/mL
4 | NCCCCNCC(=O)N(CC(=O)N(CCCCN)CC(=O)N(CC(=O)N(CCCCN)CC(=O)N(CC(=O)N(CCCCN)CC(=O)N(CC(=O)N(CCCCN)CC(=O)N(CC(N)=O)Cc1ccc(Br)cc1)Cc1ccccc1)Cc1ccc(Br)cc1)Cc1ccccc1)Cc1ccc(Br)cc1 [Compound 26] (H-[Nlys][N(4-Br-benzyl)Gly][Nlys][Nphe][Nlys][N(4-Br-benzyl)Gly][Nlys][Nphe][Nlys][N(4-Br-benzyl)Gly]-NH2) | 8 µg/mL (≈ 4.91 µM) | 4 µg/mL (≈ 2.45 µM) | 4 µg/mL (≈ 2.45 µM) | 1 µg/mL (≈ 0.613 µM) | 1 µg/mL (≈ 0.613 µM) | 256 µg/mL (≈ 157 µM) | 512 µg/mL (≈ 314 µM) | > 5 mg/mL | – | – | – | 1 to 8 µg/mL
5 | NCCCCNCC(=O)N(CC(=O)N(CCCCN)CC(=O)N(CC(=O)N(CCCCN)CC(=O)N(CC(=O)N(CCCCN)CC(=O)N(CC(=O)N(CCCCN)CC(=O)N(CC(N)=O)Cc1ccccc1)Cc1ccccc1)Cc1ccccc1)Cc1ccccc1)Cc1ccccc1 [Compound 19] (H-[Nlys][Nphe][Nlys][Nphe][Nlys][Nphe][Nlys][Nphe][Nlys][Nphe]-NH2) | > 512 µg/mL | > 512 µg/mL | > 512 µg/mL | 128 µg/mL (≈ 91.8 µM) | 128 µg/mL (≈ 91.8 µM) | 256 µg/mL (≈ 184 µM) | 512 µg/mL (≈ 367 µM) | > 5 mg/mL | inactive | – | – | –
6 | NCCCCNCC(=O)N(CC(=O)N(CCCCN)CC(=O)N(CC(=O)N(CCCCN)CC(=O)N(CC(=O)N(CCCCN)CC(=O)N(CC(=O)N(CCCCN)CC(=O)N(CC(=O)N(CCCCN)CC(=O)N(CC(N)=O)Cc1ccc(I)cc1)Cc1ccc(I)cc1)Cc1ccc(I)cc1)Cc1ccc(I)cc1)Cc1ccc(I)cc1)Cc1ccc(I)cc1 [Compound 32] (H-[Nlys][NBzl(4-I)Gly][Nlys][NBzl(4-I)Gly][Nlys][NBzl(4-I)Gly][Nlys][NBzl(4-I)Gly][Nlys][NBzl(4-I)Gly][Nlys][NBzl(4-I)Gly]-NH2) | 32 µg/mL (≈ 13.2 µM) | 64 µg/mL (≈ 26.4 µM) | 128 µg/mL (≈ 52.8 µM) | 16 µg/mL (≈ 6.6 µM) | 32 µg/mL (≈ 13.2 µM) | > 512 µg/mL | > 512 µg/mL | 0.4 mg/mL | the activity was lost | – | – | –
